Legend:
[1] = tested on: MNRR1-promoter driven luciferase reporter; experiment: High throughput screen with MNRR1-promoter driven luciferase reporter cell lines; assay type: cell-based, human; details: list of 2400 FDA-approved drugs, small molecules and natural products
Procedure: Cell lines, culture, and Z′ determination: Stable cell line generation: HEK293 or MDA-MB-468 cells were transfected with pGL4-MNNR1-luciferase, selected with 0.5 μg/mL (for 293) or 1 μg/mL (for 468) puromycin for 2 weeks, and subcloned by limiting dilution. MDA-MB-468-MNRR1-luc and HEK293-MNRR1-luc cells from multiple clones (5000-7500 cells) were plated in 100 μL of complete medium overnight and treated with 10 μM of each compound from the library for 24 h. The medium was aspirated from each well to a volume of 25 μL, and 25 μL Bright Glo (Promega, Madison, WI) luciferase detection reagent was added to each well 10 min prior to luminescent determination with a FlexStation 3 Multimode Microplate Reader (Molecular Devices, San Jose, CA). […] The Z′ factor is a value used to identify strong candidates and can be calculated using a previously described method. […]
MicroSource Spectrum Collection: Despite the low Z′ values for MDA-MB-468-MNRR1-luc and HEK293-MNRR1-luc, pilot screens were performed with both using the MicroSource Spectrum Collection (Gaylordsville, CT). […] For HTS, cells were plated, treated, and measured for luciferase expression as described for clone identification; all HTS compounds were added to a final concentration of 10 μM and MNRR1-luciferase expression was measured after 24 h. […]

MNRR1 [2] = experiment: MNRR1-luciferase reporter assay in HTR cells; assay type: cell-based; details: Homo sapiens; HTR8 cells, 24 h, relative to vehicle (DMSO); read-out: half-maximal effective concentration (EC50), activation of MNRR1 reporter
Procedure: FIGS. 1A-1D. Nitazoxanide's anti-inflammatory effects are via transcriptional activation of MNRR1. (FIG. 1A) Results of a screen of ˜2400 FDA-approved drugs and natural compounds identified to transcriptionally activate (>1), inhibit (<1), or not affect (=1) MNRR1. Each circle represents one drug and the MNRR1 activator (nitazoxanide (N)) has been highlighted in green. (FIG. 1B) Equal numbers of HTR cells overexpressing the MNRR1-luciferase reporter were plated on a 96 well plate and treated with increasing amounts of nitazoxanide or vehicle (DMSO) for 24 h. EC50 was calculated using the activation of MNRR1 reporter relative to vehicle treated cells using the Quest Graph^TM EC50 Calculator. (FIG. 1C) TNF transcript levels were measured in human placental cells. Actin was used as a housekeeping gene for normalization. […]
Transfections and luciferase reporter assays: HTR cells were transfected with the indicated plasmids, using TransFast transfection reagent (Promega, Madison, WI, USA) according to the manufacturer's protocol as previously described (Purandare et al., iScience, 25: 105342, 2022). […] EC50 was calculated by using the Quest Graph™ EC50 Calculator (AAT Bioquest, Inc., on the World Wide Web at aatbio.com/tools/ec50-calculator).

MNRR1 [3] = experiment: MNRR1 immunofluorescence in MDAMB468 cells; assay type: cell-based, human; details: MDAMB468, 10 μM, 24 h
Procedure: FIGS. 4A-4B: High throughput screen to identify MNRR1 activators. FIG. 4A: Campaign view representing compounds that activate MNRR1. Control levels are represented as a dotted line. Each compounds is shown as a small dot and nitazoxanide is highlighted as a large dot. FIG. 4B: MDAMB468 cells treated with Vehicle (DMSO) or nitazoxanide (10 μM) for 24 h were immunostained (MNRR1=orange, DAPI=blue) and imaged at 63λ using a confocal microscope. The scale bar represents 200 μm.
Immunofluorescence: Cells plated on glass cover slips were fixed with 3.7% formaldehyde (prepared in 1× PBS) at room temperature for 15 min, followed by permeabilization with 0.15% Triton X-100 (prepared in distilled water) for 2 min, and then blocked with 5% bovine serum albumin (BSA) (prepared in 1× PBS, 0.1% TWEEN-20 (PBST)) for 1 h at room temperature. Cells were washed with PBST then incubated for 1 h at room temperature in primary antibody solution containing Coralite® 594 conjugated mouse monoclonal anti-CHCHD2 IgG (1:100, Proteintech, Cat. No. CL594-66302) prepared in PBST. Cells were washed 3 times with PBST for 5 min each and mounted with Vectashield vibrance with DAPI (Cat. #H-1800-10, Vector Labs, Newark, CA). […] Corrected total fluorescence for each field to determine MNRR1 content was calculated using FIJI (National Institutes of Health).

## CC(=O)Oc1ccccc1C(=O)Nc1ncc([N+](=O)[O-])s1 [nitazoxanide, Nitazoxanide]
[1]
  outcome of screen for MNRR1 activators: identified as an MNRR1 activator
MNRR1 [2]
  EC50: 115 nM
MNRR1 [3]
  MNRR1 level: increase of MNRR1
